Results from ChEMBL document CHEMBL4011581, “Interference with bile salt export pump function is a susceptibility factor for human liver injury in drug development” (Toxicol Sci, 2010).
Where a name gives a salt, the structure may show the parent alone.

Target: Bile salt export pump (Homo sapiens, UniProt O95342)
Test: Inhibition of human BSEP expressed in fall armyworm sf9 cell plasma membrane vesicles assessed as reduction in vesicle-associated [3H]-taurocholate transport preincubated for 10 mins prior to ATP addition measured after 15 mins in presence of [3H]-taurocholate by topcount based membrane vesicle transport assay
Format: ADME

Row | Structure (SMILES) | IC50 [µM]
1 | Cc1c(O)cccc1C(=O)N[C@@H](CSc1ccccc1)[C@H](O)CN1C[C@H]2CCCC[C@H]2C[C@H]1C(=O)NC(C)(C)C | 11.8
2 | C=C[C@H]1C[N@@]2CC[C@H]1C[C@@H]2[C@@H](O)c1ccnc2ccc(OC)cc12 [QUINIDINE] | > 135
3 | Nc1cc(-c2ccncc2)c[nH]c1=O [INAMRINONE] | > 135
4 | CC(C)NCC(O)c1ccc(NS(C)(=O)=O)cc1 (stereo unspecified) [SOTALOL] | > 135
5 | CNC(=O)c1cc(Oc2ccc(NC(=O)Nc3ccc(Cl)c(C(F)(F)F)c3)cc2)ccn1 [SORAFENIB] | 8
6 | CC(=O)[C@H]1[C@H](C#N)C[C@H]2[C@@H]3CC=C4CC(O)CC[C@]4(C)[C@H]3CC[C@@]21C (stereo partly specified) | > 135
7 | C[C@H]1C[C@@H]2[C@H]([C@@H](O)C[C@@]3(C)[C@H]2CC[C@]3(O)C(=O)CO)[C@@]2(C)C=CC(=O)C=C12 [METHYLPREDNISOLONE] | > 135
8 | CN(C)CCC(c1ccc(Cl)cc1)c1ccccn1 (stereo unspecified) [CHLORPHENIRAMINE] | > 135
9 | CC(C)Cc1ccc(C(C)C(=O)O)cc1 (stereo unspecified) [IBUPROFEN] | > 135
10 | CN1CCOC(c2ccccc2)c2ccccc2C1 (stereo unspecified) [NEFOPAM] | > 135
11 | O=C(O)CCNC(=O)c1ccccc1 [BETAMIPRON] | > 135
12 | NC[C@@H]1O[C@H](O[C@H]2[C@@H](O)[C@H](O[C@@H]3[C@@H](O)[C@H](N)C[C@H](N)[C@H]3O[C@H]3O[C@H](CN)[C@@H](O)[C@H](O)[C@H]3N)O[C@@H]2CO)[C@H](N)[C@@H](O)[C@@H]1O [FRAMYCETIN] | > 135
13 | Cc1nccn1CC1CCc2c(c3ccccc3n2C)C1=O (stereo unspecified) [ONDANSETRON] | > 135
14 | CC(=O)Oc1ccccc1C(=O)O [ASPIRIN] | > 135
15 | Nc1nc2c(ncn2COCCO)c(=O)[nH]1 [ACYCLOVIR] | > 135
16 | Cc1cccc(C)c1OCC(=O)N[C@@H](Cc1ccccc1)[C@@H](O)C[C@H](Cc1ccccc1)NC(=O)[C@H](C(C)C)N1CCCNC1=O [LOPINAVIR] | 17.3
17 | CS(=O)(=O)OCCCCOS(C)(=O)=O [BUSULFAN] | > 135
18 | CC[C@@]1(O)C(=O)OCc2c1cc1n(c2=O)Cc2cc3ccccc3nc2-1 [CAMPTOTHECIN] | > 135
19 | CC1=C(CC(=O)O)c2cc(F)ccc2/C1=C\c1ccc([S+](C)[O-])cc1 (stereo unspecified) | > 135
20 | S=C=Nc1cccc2ccccc12 [1-NAPHTHYLISOTHIOCYANATE] | 60 to 75
21 | C[C@H]1C[C@H]2[C@@H]3CCC4=CC(=O)C=C[C@]4(C)[C@@]3(F)[C@@H](O)C[C@]2(C)[C@@]1(O)C(=O)CO [BETAMETHASONE] | > 135
22 | CCN(CC)CCOc1ccc2c(c1)C(=O)c1cc(OCCN(CC)CC)ccc1-2 [TILORONE] | > 135

Row | Structure (SMILES) | IC50 [µM]
23 | NNC(=O)c1ccncc1 [ISONIAZID] | > 135
24 | Cc1c(OCC(F)(F)F)ccnc1C[S+]([O-])c1nc2ccccc2[nH]1 (stereo unspecified) [LANSOPRAZOLE] | > 135
25 | C=CCc1ccccc1OCC(O)CNC(C)C (stereo unspecified) [ALPRENOLOL] | > 135
26 | CC1(COc2ccc(CC3SC(=O)NC3=O)cc2)CCCCC1 (stereo unspecified) [CIGLITAZONE] | 37.8
27 | Cc1ccc(C(=O)c2cc(O)c(O)c([N+](=O)[O-])c2)cc1 [TOLCAPONE] | 34.5
28 | CCn1cc(C(=O)O)c(=O)c2cc(F)c(N3CCN(C)CC3)cc21 [PEFLOXACIN] | > 135
29 | O=c1n(CCCN2CCN(c3cccc(Cl)c3)CC2)nc2ccccn12 [TRAZODONE] | > 135
30 | CN(C)CCC=C1c2ccccc2CCc2ccccc21 [AMITRIPTYLINE] | > 135
31 | CC(C)(C)NCC(O)COc1cccc2c1CC(O)C(O)C2 (stereo unspecified) [NADOLOL] | > 135
32 | Cc1ccc(NC(=O)c2ccc(CN3CCN(C)CC3)cc2)cc1Nc1nccc(-c2cccnc2)n1 [IMATINIB] | 25.1
33 | CNS(=O)(=O)Cc1ccc2[nH]cc(CCN(C)C)c2c1 | > 135
34 | NCC[C@H](O)C(=O)N[C@@H]1C[C@H](N)[C@@H](O[C@H]2O[C@H](CN)[C@@H](O)[C@H](O)[C@H]2O)[C@H](O)[C@H]1O[C@H]1O[C@H](CO)[C@@H](O)[C@H](N)[C@H]1O [AMIKACIN] | > 135
35 | CN1CCC[C@H]1c1cccnc1 [NICOTINE] | > 135
36 | CS(=O)(=O)CCNCc1ccc(-c2ccc3ncnc(Nc4ccc(OCc5cccc(F)c5)c(Cl)c4)c3c2)o1 [LAPATINIB] | 6.5
37 | c1ccc2c(c1)OCC(C1=NCCN1)O2 (stereo unspecified) [IDAZOXAN] | > 135
38 | CNC1=Nc2ccc(Cl)cc2C(c2ccccc2)=[N+]([O-])C1 [CHLORDIAZEPOXIDE] | 25 to 45
39 | CC(C)OC(=O)C(C)(C)Oc1ccc(C(=O)c2ccc(Cl)cc2)cc1 [FENOFIBRATE] | 15.3
40 | COc1cc2c3cc1Oc1cc(ccc1O)C[C@@H]1c4c(cc(OC)c(O)c4Oc4ccc(cc4)C[C@@H]3N(C)CC2)CC[N+]1(C)C [TUBOCURARINE] | > 135
41 | CCCCNC(=O)NS(=O)(=O)c1ccc(C)cc1 [TOLBUTAMIDE] | > 135
42 | CS(=O)(=O)c1ccc(C2=C(c3ccccc3)C(=O)OC2)cc1 [ROFECOXIB] | > 135
43 | Cc1noc(NS(=O)(=O)c2ccc(N)cc2)c1C [SULFISOXAZOLE] | > 135
44 | CC1Cc2ccccc2N1NC(=O)c1ccc(Cl)c(S(N)(=O)=O)c1 (stereo unspecified) [INDAPAMIDE] | > 135

Row | Structure (SMILES) | IC50 [µM]
45 | [H]/N=C(/N)N/C(=N/[H])NCCc1ccccc1 [PHENFORMIN] | > 135
46 | C#CCN(C)[C@H](C)Cc1ccccc1 [SELEGILINE HYDROCHLORIDE] | > 135
47 | CCC(C)n1ncn(-c2ccc(N3CCN(c4ccc(OCC5COC(Cn6cncn6)(c6ccc(Cl)cc6Cl)O5)cc4)CC3)cc2)c1=O (stereo unspecified) [ITRACONAZOLE] | 18
48 | CC(C)CN(C[C@@H](O)[C@H](Cc1ccccc1)NC(=O)O[C@H]1CCOC1)S(=O)(=O)c1ccc(N)cc1 | 25 to 45
49 | CC(C)[C@@H]1NC(=O)[C@H](C)OC(=O)[C@@H](C(C)C)NC(=O)[C@@H](C(C)C)OC(=O)[C@H](C(C)C)NC(=O)[C@H](C)OC(=O)[C@@H](C(C)C)NC(=O)[C@@H](C(C)C)OC(=O)[C@H](C(C)C)NC(=O)[C@H](C)OC(=O)[C@@H](C(C)C)NC(=O)[C@@H](C(C)C)OC1=O [VALINOMYCIN] | 1.6
50 | COc1cc2nc(N3CCN(C(=O)c4ccco4)CC3)nc(N)c2cc1OC [PRAZOSIN] | > 135
51 | CC[C@]1(O)C[C@@H]2CN(CCc3c([nH]c4ccccc34)[C@@](C(=O)OC)(c3cc4c(cc3OC)N(C)[C@H]3[C@@](O)(C(=O)OC)[C@H](OC(C)=O)[C@]5(CC)C=CCN6CC[C@]43[C@@H]65)C2)C1 [VINBLASTINE] | > 135
52 | CN[C@@H]1C[C@H]2O[C@@](C)([C@@H]1OC)n1c3ccccc3c3c4c(c5c6ccccc6n2c5c31)C(=O)NC4 [STAUROSPORINE] | 18.7
53 | COc1ccc2cc1Oc1cc3c(cc1OC)CC[N+](C)(C)[C@H]3Cc1ccc(cc1)Oc1c(OC)c(OC)cc3c1[C@@H](C2)[N+](C)(C)CC3 [METOCURINE] | > 135
54 | O=c1c(O)c(-c2ccc(O)c(O)c2)oc2cc(O)cc(O)c12 [QUERCETIN] | > 135
55 | Cc1cc(NS(=O)(=O)c2ccc(N)cc2)no1 [SULFAMETHOXAZOLE] | > 135
56 | CCOC(=O)C(C)(C)Oc1ccc(Cl)cc1 [CLOFIBRATE] | 60 to 75
57 | CCOc1ccc(NC(C)=O)cc1 [PHENACETIN] | > 135
58 | O=C(O)CCCc1ccc(N(CCCl)CCCl)cc1 [CHLORAMBUCIL] | > 135
59 | CNCCC=C1c2ccccc2CCc2ccccc21 [NORTRIPTYLINE] | > 135
60 | O=C(c1ccc(F)cc1)C1CCN(CCn2c(=O)[nH]c3ccccc3c2=O)CC1 [KETANSERIN] | > 135
61 | CO[C@H]1/C=C/O[C@@]2(C)Oc3c(C)c(O)c4c(c3C2=O)C2=NC3(CCN(CC(C)C)CC3)NC2=C(NC(=O)/C(C)=C\C=C\[C@H](C)[C@H](O)[C@@H](C)[C@@H](O)[C@@H](C)[C@H](OC(C)=O)[C@@H]1C)C4=O [RIFABUTIN] | 26.7
62 | CCN(CC)CCNC(=O)c1cc(Cl)c(N)cc1OC [METOCLOPRAMIDE] | > 135
63 | CN1C(=O)CN=C(c2ccccc2)c2cc(Cl)ccc21 [DIAZEPAM] | > 135
64 | CC(C)NNC(=O)c1ccncc1 [IPRONIAZID] | > 135
65 | O=P1(N(CCCl)CCCl)NCCCO1 (stereo unspecified) [CYCLOPHOSPHAMIDE ANHYDROUS] | > 135
66 | CC(=O)Nc1ccc(O)cc1 [ACETAMINOPHEN] | > 135

Row | Structure (SMILES) | IC50 [µM]
67 | Cc1ncc2n1-c1ccc(Cl)cc1C(c1ccccc1F)=NC2 [MIDAZOLAM] | 41.7
68 | NC(N)=Nc1nc(CSCCC(N)=NS(N)(=O)=O)cs1 [FAMOTIDINE] | > 135
69 | C=CCN1CC[C@]23c4c5ccc(O)c4O[C@H]2C(=O)CC[C@@]3(O)[C@H]1C5 [NALOXONE] | > 135
70 | C=C[C@H]1C[N@@]2CC[C@H]1C[C@H]2[C@H](O)c1ccnc2ccc(OC)cc12 [QUININE] | > 135
71 | CN1CCc2cccc3c2[C@H]1Cc1ccc(O)c(O)c1-3 [APOMORPHINE] | > 135
72 | CCCNC(=O)NS(=O)(=O)c1ccc(Cl)cc1 [CHLORPROPAMIDE] | > 135
73 | COc1ccc(Cc2nccc3cc(OC)c(OC)cc23)cc1OC [PAPAVERINE] | > 135
74 | COc1ccccc1Oc1c(NS(=O)(=O)c2ccc(C(C)(C)C)cc2)nc(-c2ncccn2)nc1OCCO [BOSENTAN] | 22
75 | Nc1nc(O)c2ncn(COC(CO)CO)c2n1 [GANCICLOVIR] | > 135
76 | O=C(NC1CCN(CCc2c[nH]c3ccccc23)CC1)c1ccccc1 [INDORAMIN] | > 135
77 | CC(C)(Oc1ccc(C2CC2(Cl)Cl)cc1)C(=O)O (stereo unspecified) [CIPROFIBRATE] | > 135
78 | NS(=O)(=O)Cc1noc2ccccc12 [ZONISAMIDE] | > 135
79 | Cn1c(=O)c2[nH]cnc2n(C)c1=O [THEOPHYLLINE] | > 135
80 | Nc1ccc(S(=O)(=O)Nc2ncccn2)cc1 [SULFADIAZINE] | > 135
81 | CN(C)C(=O)Oc1cccc([N+](C)(C)C)c1 [NEOSTIGMINE] | > 135
82 | Cc1c(C)c2c(c(C)c1O)CCC(C)(COc1ccc(CC3SC(=O)NC3=O)cc1)O2 (stereo unspecified) [TROGLITAZONE] | 5.9
83 | CCCc1nc2c(C)cc(-c3nc4ccccc4n3C)cc2n1Cc1ccc(-c2ccccc2C(=O)O)cc1 | 16.2
84 | Cc1ccc(-c2ncc(Cl)cc2-c2ccc(S(C)(=O)=O)cc2)cn1 [ETORICOXIB] | 45 to 60
85 | COc1ccc2cc([C@H](C)C(=O)O)ccc2c1 [NAPROXEN] | > 135
86 | COC[C@H]1OC(=O)c2coc3c2[C@@]1(C)C1=C(C3=O)[C@@H]2CCC(=O)[C@@]2(C)C[C@H]1OC(C)=O [WORTMANNIN] | 13.6
